Reference: patent EP0383170A2, “Methotrexate linked to polymers, process for their preparation, and use” (HOECHST AKTIENGESELLSCHAFT, priority 1989, dated 1990)

Assays:
[1] = free methotrexate; the 330 mg/kg dose is said to lie above it; cited from earlier work
[2] = tested on: L1210 Leukämie; assay: In vivo efficacy on L1210 leukaemia in mice (median survival time, T/C); conditions: for optimale Dosis: dose giving the greatest antitumoral effect
Protocol: Aszites Flüssigkeit wird 7 Tage nach der Tumor-Implantation unter sterilen Bedingungen aus DBA2 Mäusen entnommen (weiblich, 18 bis 20 g). Die Aszites Flüssigkeit wird dreimal mit PBS (phosphate buffered saline) gewaschen, gezählt und anschließend in PBS verdünnt bis zu einer Endkonzentration von 10⁶ Zellen pro 0,2 ml.
10⁶ Zellen in 0,2 ml PBS werden DBA2 Mäusen (weiblich, 18 bis 20 g) intraperitoneal appliziert. Dieser Transfer wird einmal wöchentlich wiederholt.
10⁵ Zellen der Aszites Flüssigkeit in 0,2 ml PBS werden BDF1 Mäusen (weiblich, 18 bis 20 g) intraperitoneal appliziert. 6 Tiere werden für jede Substanzkonzentration sowie für die Kontrolle eingesetzt.
a) Die Tiere werden an Tag 1 und Tag 5 nach der Tumorzellenimplantation gewogen. Gewichtsverlust von mehr als 20 % an Tag 5 wird als Indikator eines toxischen Substanzeffektes verwendet.
b) Am Ende des Experiments (Tod aller Tiere oder Erreichen von Tag 60) wird die mediane Überlebenszeit der Behandlungsgruppen bestimmt, sofern diese 65 % überlebende Tiere am Tag 5 enthielten. Die Ermittlung der medianen Überlebenszeit erfolgt entsprechend der Formel: [formula]
In dieser Formel bedeutet X den frühesten Tag, an dem die Zahl der überlebenden Tiere N/2 und Y den frühesten Tag, an dem die Zahl der überlebenden Tiere (N/2)-1 ist. In dem Fall, daß N eine ungerade Zahl ist, entspricht die mediane Überlebenszeit dem Zeitpunkt X.
Die mediane Überlebenszeit wird ausschließlich für im Verlauf des Experiments sterbende Tiere bestimmt. Geheilte Tiere (long time survivors, LTS) werden von der Bestimmung der medianen Überlebenszeit ausgeschlossen und getrennt aufgeführt.
Aus der medianen Überlebenszeit der behandelten Gruppen (MSTTumor) und Kontrollgruppen (MSTControl) wird der antitumorale Effekt-Tumor/control (T/C) entsprechend der Formel [formula] bestimmt. T/C Werte von mehr als 125 % werden als Indikator einer signifikanten antitumoralen Wirksamkeit der Testverbindung angesehen. Die Dosis, die jeweils den größten antitumoralen Effekt bewirkt (optimale Dosierung) ist in Tab. 2 aufgeführt. Noch lebende Tiere an Tag 60 werden als geheilt betrachtet (LTS). Ergebnisse: s. Tabelle 2

[3] = tested on: A 549; assay: Proliferation test (formazan dye reduction), 72 h incubation; type: cell-based; conditions: A 549 cells
Description: (§1) Proliferationstest (Methotrexat-Reduktion)
(§2) Kontrollexperimente erhalten anstelle der Testsubstanz lediglich Wachstumsmedium. […] Flow bei einer Wellenlänge von 492 nm gemessen.
(§3) Für wiederholte Untersuchungen beträgt der Variationskoeffizient weniger als 15 %. Tabelle 1

[4] = tested on: L1210; assay: as above; type: cell-based; conditions: L1210 cells
Description: as §1, §2, §3

[5] = tested on: HT 29; assay: as above; type: cell-based; conditions: HT 29 cells
Description: as §1, §2, §3

[6] = L1210, 3xip/ip/Q3D, at optimal dose

## CN(Cc1cnc2nc(N)nc(N)c2n1)c1ccc(C(=O)N[C@@H](CCC(=O)O)C(=O)O)cc1 [Methotrexat, N-[4-[[(2,4-diamino-6-pteridinyl)-methyl]methylamino]benzoyl]-glutaminsäure]
[1]
  LD₅₀: < 330 mg/kg
[2]; L1210, 1xip/ip, at optimal dose
  Wirkung (T/C %): 123%
[2]; L1210, 1xip/ip
  optimale Dosis: 100 mg polymerfixiertes Produkt/kg Körpergewicht
[2]; [6]
  Wirkung (T/C %): 378%
  toxisch: 1
[2]; L1210, 3xip/ip/Q3D, at optimal dose, animals alive at day 60 (LTS)
  Heilungen: 5/6
[2]; L1210, 3xip/ip/Q3D
  optimale Dosis: 80 mg polymerfixiertes Produkt/kg Körpergewicht
[2]; mice with L1210 leukaemia, single i.p. application of 60 mg/kg body weight methotrexate equivalent
  Lebensverlängerungen gegenüber unbehandelten Kontrollen: nicht wirksam
[3]
  IC₅₀: 0,01 µg/ml
[4]
  IC₅₀: 0,01 µg/ml
[5]
  IC₅₀: 0,008 µg/ml
